Measured values: US20220047545A1 (priority 2020, published 2022)

How the values were obtained:
[1] = target: RBD of SARS-CoV-2 spike protein binding to hACE2 receptor (Severe acute respiratory syndrome coronavirus 2, UniProt P0DTC2)
[2] = tested on: A549 cells expressing eGFP spike protein fusing with hACE2-overexpressing A549 cells; assay type: cell-based, human; details: 25 μg/ml, 4 h
[3] = target: T1, cellular hACE2 in hACE2/A549 cells (Homo sapiens, UniProt Q9BYF1); assay: Cellular hACE2 activity assay; details: cell-based
T1 construct: host or cells: A549 (human alveolar epithelial) stably overexpressing hACE2
T1 sequence (Q9BYF1 18-805): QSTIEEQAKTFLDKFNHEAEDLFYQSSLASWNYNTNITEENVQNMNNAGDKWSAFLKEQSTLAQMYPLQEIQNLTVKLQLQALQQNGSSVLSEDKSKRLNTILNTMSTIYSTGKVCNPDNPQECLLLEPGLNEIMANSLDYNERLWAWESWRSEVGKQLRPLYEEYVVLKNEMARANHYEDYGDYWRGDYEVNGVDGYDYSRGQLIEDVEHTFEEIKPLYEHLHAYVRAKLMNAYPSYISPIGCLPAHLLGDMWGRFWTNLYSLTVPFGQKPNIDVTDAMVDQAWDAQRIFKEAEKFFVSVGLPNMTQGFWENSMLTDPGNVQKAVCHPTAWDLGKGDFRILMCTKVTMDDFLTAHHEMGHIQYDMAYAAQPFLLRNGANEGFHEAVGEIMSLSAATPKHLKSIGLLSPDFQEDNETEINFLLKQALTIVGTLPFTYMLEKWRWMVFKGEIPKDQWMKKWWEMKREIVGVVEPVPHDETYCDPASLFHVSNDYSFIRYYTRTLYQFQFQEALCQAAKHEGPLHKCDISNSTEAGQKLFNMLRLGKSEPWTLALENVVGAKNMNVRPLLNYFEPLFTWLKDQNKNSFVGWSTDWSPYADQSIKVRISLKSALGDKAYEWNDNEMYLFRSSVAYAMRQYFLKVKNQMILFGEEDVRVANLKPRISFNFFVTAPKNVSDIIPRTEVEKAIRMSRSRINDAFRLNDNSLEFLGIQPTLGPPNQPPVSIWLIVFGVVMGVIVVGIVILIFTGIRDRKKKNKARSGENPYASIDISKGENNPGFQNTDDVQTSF
Protocol: ACE2 activity assays: To determine the inhibitory effect of selected polyphenols on the activity of cellular hACE2 protein, hACE2/A549 cells were seeded in 48-well plates and allowed to adhere for 24 h or until reaching 99-100% of confluence. […] (Dnp)-OH. Finally, the plates were incubated at 37° C. for 1 h, and the fluorescence signal was measured at Ex/Em=320/405 nm wavelength with a spectrofluorometer (Tecan Group Ltd, Switzerland). […] Results are expressed as a percentage of polyphenol-free control (mean+/−SD, n=6).

[4] = target: T2, recombinant hTMPRSS2 (Homo sapiens, UniProt O15393); assay: Recombinant TMPRSS2 activity assay (cell-free); assay type: biochemical; details: 10-25 μg/ml, 3 h treatment
T2 construct: purchased Creative BioMart
T2 sequence (O15393 whole entry): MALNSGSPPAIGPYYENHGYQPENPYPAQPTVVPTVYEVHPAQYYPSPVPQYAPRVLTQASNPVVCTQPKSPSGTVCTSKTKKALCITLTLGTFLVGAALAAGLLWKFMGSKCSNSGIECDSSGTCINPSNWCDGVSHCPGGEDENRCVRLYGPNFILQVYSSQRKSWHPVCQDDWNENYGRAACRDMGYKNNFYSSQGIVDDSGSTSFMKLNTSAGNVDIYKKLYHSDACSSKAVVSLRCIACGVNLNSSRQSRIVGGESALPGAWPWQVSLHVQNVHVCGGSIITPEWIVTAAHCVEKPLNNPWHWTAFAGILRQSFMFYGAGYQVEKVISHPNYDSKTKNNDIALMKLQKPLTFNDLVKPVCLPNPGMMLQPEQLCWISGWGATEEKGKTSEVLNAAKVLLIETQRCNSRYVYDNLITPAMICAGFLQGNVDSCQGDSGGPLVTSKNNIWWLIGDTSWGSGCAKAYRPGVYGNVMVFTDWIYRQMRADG
Protocol: To this reaction 10 μM of TMPRSS2 enzyme in assay buffer (50 mM Tris pH=8, 150 mM NaCl) was added. Following 1 h incubation at RT, detection of fluorescent signal was performed using a spectrofluorometer at Ex/Em=360/440 nm wavelength (Tecan Group Ltd, Switzerland). The positive control was 100 μM camostat mesylate. […] Results are expressed as a percentage of polyphenol-free control (mean+/−SD, n=6).
Fluorescence was assessed using a spectrofluorometer at extension/emission=360/440 nm (Tecan Group Ltd., Switzerland). The positive control was 100 μM camostat mesylate.

[5] = target: T3, human recombinant cathepsin L (Homo sapiens, UniProt P07711); assay: Cathepsin L activity, purified/recombinant enzyme (cell-free); assay type: biochemical
T3 construct: purchased BPS Bioscience
T3 sequence (P07711 114-333): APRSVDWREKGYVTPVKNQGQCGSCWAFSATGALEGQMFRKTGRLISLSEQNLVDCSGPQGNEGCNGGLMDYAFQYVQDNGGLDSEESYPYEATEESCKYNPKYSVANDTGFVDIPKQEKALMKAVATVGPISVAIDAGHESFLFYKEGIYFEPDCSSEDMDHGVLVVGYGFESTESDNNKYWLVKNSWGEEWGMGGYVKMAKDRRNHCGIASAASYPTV
Protocol: Positive control contained only cathepsin L, and negative control containing cathepsin L and cathepsin L inhibitor E64d (25 μM). The fluorescence was recorded at extension/emission=360/480 nm with a fluorescence spectrometer (Tecan Group Ltd., Switzerland).

[6] = target: T4, cathepsin L in A549 cells (Homo sapiens, UniProt P07711); assay: Cellular cathepsin L activity (lysates of treated A549 cells); assay type: cell-based; details: 25 μg/ml, not significant
T4 construct: A549 cells were seeded in 6-well plates; endogenous in cells; host or cells: A549 (ATCC)
T4 sequence (P07711 114-333): as above
Protocol: Cathepsin L activity assays: Cellular cathepsin L activity assays were performed utilizing a Cathepsin L Activity Assay Kit (Abcam, Cambridge, Mass.) according to the manufacturer's protocol. […] The samples were then centrifuged for 2 min. at 4° C. to remove any insoluble material. Supernatants were collected and transferred to clean tubes that were kept on ice. […] The plates were incubated at 37° C. for 1 h and fluorescence signal was measure at Ex/Em=400/505 nm wavelength with a spectrofluorometer (Tecan Group Ltd, Switzerland). […] Results are expressed as a percentage of polyphenol-free control (mean+/−SD, n=6).
Cathepsin L activity assay and its cellular expression: Cathepsin L activity: Experiment was performed in cell lysates using a Cathepsin L Activity Assay Kit (Abcam, Cambridge, Mass.) according to the manufacturer's protocol. […] After 3 minutes of centrifuged for at 4° C., supernatants were collected and enzymatic reaction was set up by mixing 50 μl of treated sample, 50 μl of control sample, 50 μl of background control sample, 50 μl of positive and negative controls. […] Samples were incubated at 37° C. for 1 hour, and fluorescence was recorded at extension/emission=400/505 nm with a fluorescence spectrometer (Tecan Group Ltd., Switzerland).

[7] = tested on: cathepsin L expression in A549 cells; assay: Cathepsin L expression in A549 cells (Western blot); assay type: cell-based, human
Protocol: Proteins (50 μg/well) were separated on 8-16% gradient SDS-PAGE gels and transferred to a PVDF membrane. […] Images were captured with Azure™ cSeries digital imaging system (Azure Biosystems, Dublin, Calif.) with auto-exposure settings. Densitometry was performed with NIH ImageJ software.
Cathepsin L expression: Expression of cathepsin L in cells was performed using Western blot. Briefly, 48 hours prior to the analysis, A549 cells were treated with PB at 5.0, and 10 μg/ml concentrations. Next, cells were washed with 1×PBS, lysed, and processed according to procedure described below.
Western blot: […] cells were lysed with lysis buffer [RIPA buffer plus 1× Protease Inhibitor (ThermoFisher Scientific, Waltham, Mass.)]. The protein estimation was performed with Dc Protein Assay (Bio-Rad, Hercules, Calif.). A 45 μg/well of protein was separated on 8-16% gradient SDS-PAGE gels and transferred to a PVDF membrane. Detection was performed with antibodies against cathepsin L at 1:200 dilution (Santa Cruz Biotechnology, Santa Cruz, Calif.) and against β-actin at 1:1000 dilution (Cell Signaling, Danvers, Mass.).

[8] = target: T5, hACE2 (Homo sapiens, UniProt Q9BYF1); assay: ACE2 binding assay (ACE2 Inhibitor Screening Assay Kit); set-up: purchased BPS Bioscience; details: polyphenols 5.0-25 μg/ml; PB 5.0 and 10 μg/ml
T5 sequence (Q9BYF1 18-805): as the sequence (Q9BYF1 18-805) above

[9] = target: T5, hACE2; assay: Recombinant hACE2 activity assay (cell-free); assay type: biochemical; set-up: purchased BPS Bioscience
Protocol: To determine the inhibitory effect of selected polyphenols on the activity of recombinant hACE2 protein, an ACE2 Activity Screening Assay Kit (BPS Bioscience, San Diego, Calif.) was used according to the manufacturer's protocol. […] The positive control was a sample containing only ACE2 enzyme, and the negative control was a sample containing ACE2 enzyme and 10% DMSO. ACE2 fluorogenic substrate (10 μM) was added to each well, and the plate was incubated for 1 h at RT. The fluorescence was measured at Ex/Em=535/595 nm wavelength using a spectrofluorometer (Tecan Group Ltd, Switzerland). […] Results are expressed as a percentage of polyphenol-free control (mean+/−SD, n=6).
The positive control contained only ACE2 enzyme, and the negative control additionally contained 10% DMSO.

[10] = tested on: lysosomal/endosomal pH in A549 cells; assay: Endosomal/lysosomal pH assay; assay type: cell-based, human; details: 5.0-25 μg/ml; control approximately pH=5.0
Protocol: Endosomal/lysosomal pH assay: Endosomal pH was assessed according to a previously reported protocol [54]. […] Acridine orange (Thermo Fisher Scientific, Waltham, Mass.) was added directly to each dish to reach a final concentration of 6.6 μg/ml. The cells were additionally incubated at 37° C. with 5% CO2 for 20 min. and washed three times with 1×PBS. Live Cell Imaging Solution (LCIS) (Thermo Fisher Scientific, Waltham, Mass.) was added to the wells, and images were taken using a Zeiss Axio Observer A1 fluorescence microscope with a 40× magnification. […] Results are expressed as a percentage of polyphenol-free control (mean+/−SD, n=3).
A concurrent experiment was performed using pHrodo™ Green AM Intracellular pH Indicator (Thermo Fisher Scientific, Waltham, Mass.) according to the manufacturer's protocol. […] The plate was incubated for 30 min. at 37° C., washed again with LCIS, and fluorescence was measured at Ex/Em=509/533 nm wavelength using a spectrofluorometer (Tecan Group Ltd, Switzerland). pH identification was performed based on standard curve, using an Intracellular pH Calibration Buffer Kit according to the manufacturer's protocol (Thermo Fisher Scientific, Waltham, Mass.). […] Next, the fluorescence was measured Ex/Em=509/533 nm wavelength. […]

Row | Compound | Binding with RBD (% of control ± SD) [1] | decrease of cell-cell fusion [2] [%] | effect on ACE2 activity [3] | inhibition of recombinant hTMPRSS2 activity [4] | effect on recombinant cathepsin L [5] | decrease of cathepsin L activity in cell lysates [6] [%] | cathepsin L expression at protein level ([7]; A549 cells) | direct binding to ACE2 receptor [8] | effect on ACE2 activity [9] | decrease of cathepsin L expression ([7]; starting from 10 μg/ml) | lysosomal/endosomal pH reached [10]
1 | Oc1ccc2c(c1)OC[C@]1(O)Cc3cc(O)c(O)cc3[C@H]21 [Brazilin] | 100 ± 0.1 % of control | 40 | no effects | 20-30% | minor, not significant effect | 15 | neither brazilin nor curcumin down-regulated cathepsin L expression | does not bind to ACE2 directly | no effects |  | 
2 | Theaflavin-3,3′-digallate |  |  |  |  |  |  |  |  |  | about 20% | 5.5-6.0
